Experiment [1] has as its system angiotensin II. The settings on record: binding experiments, functional assays and in vivo tests; cited from earlier work.
Experiment [2] has as its target smooth muscle angiotensin II receptor. Briefly: Assay A: Angiotensin II Binding Activity (displacement of 125I-angiotensin II, rat uterine membrane preparation). To be noted: 50% displacement of specifically bound 125I-AII, rat uterine membranes, 25° C., 60 min, pH 7.5. As to the method:
Assay A: Angiotensin II Binding Activity
Compounds of the invention were tested for ability to bind to the smooth muscle angiotensin II receptor using a rat uterine membrane preparation. Angiotensin II (AII) was purchased from Peninsula Labs. ^125 I-angiotensin II (specific activity of 2200 Ci/mmol) was purchased from Du Pont-New England Nuclear. Other chemicals were obtained from Sigma Chemical Co. This assay was carried out according to the method of Douglas et al [Endocrinology, 106, 120-124 (1980)]. Rat uterine membranes were prepared from fresh tissue. All procedures were carried out at 4° C. Uteri were stripped of fat and homogenized in phosphate-buffered saline at pH 7.4 containing 5 mM EDTA. The homogenate was centrifuged at 1500×g for 20 min., and the supernatant was recentrifuged at 100,000×g for 60 min. The pellet was resuspended in buffer consisting of 2 mM EDTA and 50 mM Tris-HCl (pH 7.5) to a final protein concentration of 4 mg/ml. Assay tubes were charged with 0.25 ml of a solution containing 5 mM MgCl2, 2 mM EDTA, 0.5% bovine serum albumin, 50 mM Tris-HCl, pH 7.5 and ^125 I-AII (approximately 10^5 cpm) in the absence or in the presence of unlabelled ligand. The reaction was initiated by the addition of membrane protein and the mixture was incubated at 25° C. for 60 min. The incubation was terminated with ice-cold 50 mM Tris-HCl (pH 7.5) and the mixture was filtered to separate membrane-bound labeled peptide from the free ligand. The incubation tube and filter were washed with ice-cold buffer. Filters were assayed for radioactivity in a Micromedic gamma counter. Nonspecific binding was defined as binding in the presence of 10 μM of unlabelled AII. Specific binding was calculated as total binding minus nonspecific binding. The receptor binding affinity of an AII antagonist compound was indicated by the concentration (IC50) of the tested AII antagonist which gives 50% displacement of the total specifically bound ^125 I-AII from the high affinity AII receptor. Binding data were analyzed by a nonlinear least-squares curve fitting program.

Experiment [3] concerns the target T1, rabbit aortic rings (angiotensin II contraction) (Oryctolagus cuniculus, UniProt P34976).
T1 construct: The thoracic aorta was removed, cleaned of adherent fat and connective tissue and then cut into 3-mm ring segments; from tissue; host or cells: rabbit thoracic aorta rings, endothelium removed
T1 sequence (P34976 1-359): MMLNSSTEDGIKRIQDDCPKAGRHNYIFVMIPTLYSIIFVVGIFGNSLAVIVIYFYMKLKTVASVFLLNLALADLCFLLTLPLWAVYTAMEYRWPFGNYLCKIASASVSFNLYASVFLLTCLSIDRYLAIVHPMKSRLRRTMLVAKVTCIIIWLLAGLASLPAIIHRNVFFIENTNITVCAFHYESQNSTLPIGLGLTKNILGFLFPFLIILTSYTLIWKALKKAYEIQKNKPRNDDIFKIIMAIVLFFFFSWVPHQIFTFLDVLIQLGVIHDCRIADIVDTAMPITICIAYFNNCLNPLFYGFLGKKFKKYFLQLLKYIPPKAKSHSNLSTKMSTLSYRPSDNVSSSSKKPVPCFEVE
As to the kind of experiment: Assay B: In Vitro Vascular Smooth Muscle Response for AII (rabbit aortic rings). The experiment is classed as cell-based, rabbit (male New Zealand white). The settings on record: rabbit aorta rings, antagonist 10^-5 M for 5 min, 37° C., read-out: Assay B pA2 (converted). As to the method:
Assay B: In Vitro Vascular Smooth Muscle-Response for AII
The compounds of the invention were tested for antagonist activity in rabbit aortic rings. Male New Zealand white rabbits (2-2.5 kg) were sacrificed using an overdose of pentobarbital and exsanguinated via the carotid arteries. The thoracic aorta was removed, cleaned of adherent fat and connective tissue and then cut into 3-mm ring segments. The endothelium was removed from the rings by gently sliding a rolled-up piece of filter paper into the vessel lumen. The rings were then mounted in a water-jacketed tissue bath, maintained at 37° C., between moveable and fixed ends of a stainless steel wire with the moveable end attached to an FT03 Grass transducer coupled to a Model 7D Grass Polygraph for recording isometric force responses. The bath was filled with 20 ml of oxygenated (95% oxygen/5% carbon dioxide) Krebs solution of the following composition (mM): 130 NaCl, 15 NaHCO3, […], 1.2 NaH2 PO4, 1.2 MgSO4, 2.5 CaCl2, and 11.4 glucose. The preparations were equilibrated for one hour before approximately one gram of passive tension was placed on the rings. Angiotensin II concentration-response curves were then recorded (3×10^-10 to 1×10^-5 M). Each concentration of AII was allowed to elicit its maximal contraction, and then AII was washed out repeatedly for 30 minutes before rechallenging with a higher concentration of AII. Aorta rings were exposed to the test antagonist at 10^-5 M for 5 minutes before challenging with AII. Adjacent segments of the same aorta ring were used for all concentration-response curves in the presence or absence of the test antagonist. The effectiveness of the test compound was expressed in terms of pA2 values and were calculated according to H. O. Schild [Br. J. Pharmacol. Chemother., 2, 189-206 (1947)]. The pA2 value is the concentration of the antagonist which increases the IC50 value for AII by a factor of two. Each test antagonist was evaluated in aorta rings from two rabbits.

Experiment [4] deals with angiotensin II. The settings on record: cited from earlier work.
Where [5] appears, read: first of two values in the cell (rings from two rabbits).
[6] abbreviates: second of two values in the cell (rings from two rabbits).

Molecules are shown by their SMILES. pIC50: −log10 of the molar value. Where two headings read alike, the source gives them in different places.

As for `CCCCc1nc(Cl)c(CC(=O)O)n1Cc1ccccc1[N+](=O)[O-]` [2-butyl-4-chloro-1-(2-nitrobenzyl)imidazole-5-acetic acid], the “specific competitive angiotensin II antagonist activity” value in the experiment on angiotensin II [1] is recorded as “specific competitive angiotensin II antagonist activity”.

For the compound `CCCCc1nc(Cl)c(CC(=O)O)n1Cc1ccccc1Cl` [2-n-butyl-4-chloro-1-(2-chlorobenzyl)imidazole-5-acetic acid], in the experiment on angiotensin II [1], the “specific competitive angiotensin II antagonist activity” value was “specific competitive angiotensin II antagonist activity”.

Turning to `CCCCc1ncc2n1C(c1ccc(-c3ccccc3-c3nnn[nH]3)cc1)CCC2=CC(=O)OC(C)(C)C` (stereo not drawn) [Example 15, 1,1-Dimethylethyl [3-butyl-6,7-dihydro-5-[2'-(1H-tetrazol-5-yl)[1,1'-biphenyl]-4-yl]imidazo[1,5-a]pyridin-8(5H)-ylidene]acetate], the pIC50 in experiment [2] is 6.80. Further, the figures for the Kb in experiment [3] (setting [5]) and in experiment [3] (setting [6]) were 347 nM and 186 nM, respectively.

`CCCCc1ncc2n1C(c1ccc(-c3ccccc3-c3nnn[nH]3)cc1)CCC2=CC(=O)O` (stereo not drawn) [Example 16, [3-Butyl-6,7-dihydro-5-[2'-(1H-tetrazol-5-yl)[1,1'-biphenyl]-4-yl]imidazo[1,5-a]pyridin-8(5H)-ylidene]acetic acid]: the pIC50 in experiment [2] is 6.36. Also, the figures for the Kb in experiment [3] (setting [5]) and in experiment [3] (setting [6]) were 7.76 nM and 16.2 nM, respectively.

In experiment [2], `CCCCc1ncc2n1C(c1ccc(-c3ccccc3-c3nnn[nH]3)cc1)CC=C2CC(=O)OC(C)(C)C` (stereo not drawn) [Example 17, 1,1-Dimethylethyl 3-butyl-5,6-dihydro-5-[2'-(1H-tetrazol-5-yl)[1,1'-biphenyl]-4-yl]imidazo[1,5-a]pyridin-8-acetate] gave a pIC50 of 7.39. Also, the results for the Kb in experiment [3] (setting [5]) and in experiment [3] (setting [6]) were 16.2 nM and 53.7 nM, respectively.

With `CCCCc1nc(CCCC)n2c1C(=NO)CCC2c1ccc(-c2ccccc2-c2nn[nH]n2)cc1` (stereo not drawn) [Example 21, 1,3-Dibutyl-5,6-dihydro-N-hydroxy-5-[2'-(1H-tetrazol-5-yl)[1.1'-biphenyl]-4-yl]imidazol[1,5-a]pyridin-8(7H)-imine], the pIC50 in experiment [2] is 7.18. The Kb in experiment [3] (setting [5]) is 105 nM; in experiment [3] (setting [6]) it was 741 nM.

Consider `CNCC(=O)N[C@@H](CCCN=C(N)N)C(=O)N[C@H](C(=O)N[C@@H](Cc1ccc(O)cc1)C(=O)N[C@H](C(=O)N[C@@H](Cc1cnc[nH]1)C(=O)N1CCC[C@H]1C(=O)N[C@@H](C)C(=O)O)C(C)C)C(C)C` [Saralasin], for which, in the experiment with angiotensin II [4], the residual agonist activity entry is “significant residual agonist activity”.

A word on the pIC50: it is −log10 of the IC50, conventionally taken in molar units. Higher therefore signals a low IC50.

The record behind these values is patent US5674879A, “Compositions including and methods of using conformationally restricted angiotensin II antagonist” (G.D. Searle & Co., priority 1995, dated 1997).
